Data reported in US10294202B2, “Pyrrolidinones as herbicides” (FMC Corporation, priority 2013, dated 2019).

Tests used:
[1] = test system: ryegrass, Italian; assay: Test A pre-/postemergence herbicide test; assay type: in vivo, Lolium multiflorum; details: for Plant response rating, Ryegrass, Italian: 0 to 100 scale
Method in brief: (§1)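 Both application timings used compounds in a non-phytotoxic solvent plus surfactant. Pre-emergence: soil sprayed directly after seeding into loam/sand. Post-emergence: foliage of 2–10 cm seedlings (1–2 leaves) sprayed. Injury rated ~10 days later, 0–100.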

[2] = test system: blackgrass; assay: Test A postemergence herbicide test; assay type: in vivo, Alopecurus myosuroides; details: for Plant response rating, Blackgrass: 125 g ai/ha, 0 to 100 scale, 0 is no effect, 100 is complete control; for Blackgrass plant response rating (0 to 100 scale, 0 is no effect, 100 is complete control): 500 g ai/ha
Method in brief: (§2)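 Young potted plants in a loam–sand mix, one- to two-leaf stage and 2–10 cm tall, receive the test chemical postemergence and stay in a greenhouse for approximately 10 days. Injury is then judged by eye against untreated plants, scored 0 (none) to 100 (complete control).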

[3] = test system: galium; assay: Test A postemergence herbicide test; assay type: in vivo, Galium aparine; details: for Plant response rating, Galium: 125 g ai/ha, 0 to 100 scale, 0 is no effect, 100 is complete control; for Galium plant response rating (0 to 100 scale, 0 is no effect, 100 is complete control): 500 g ai/ha
Method in brief: as §2

[4] = test system: sedge, umbrella; assay: Test B flooded paddy test; assay type: in vivo, Cyperus difformis; details: 500 g ai/ha, Flood; scale of 0 to 100 where 0 is no effect and 100 is complete control
Method in brief: (§3)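 Visual ratings from 0, meaning no effect, up to 100, meaning complete control, were made by comparison with untreated controls 13 to 15 days after treatment. Test compounds went straight into floodwater standing 3 cm over the soil of pots holding 2-leaf seedlings.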

[5] = test system: barnyardgrass; assay: Test B flooded paddy test; assay type: in vivo, Echinochloa crus-galli; details: 500 g ai/ha, Flood; scale of 0 to 100 where 0 is no effect and 100 is complete control
Method in brief: as §3

[6] = test system: giant foxtail; assay: Test A pre-/postemergence herbicide test; assay type: in vivo, Setaria faberii; details: for Plant response rating, Foxtail, Giant: 0 to 100 scale
Method in brief: as §1

[7] = test system: corn; assay: Test A pre-/postemergence herbicide test; assay type: in vivo, Zea mays; details: Postemergence; for Plant response rating, Corn: 125 g ai/ha, 0 to 100 scale, 0 is no effect, 100 is complete control; for Corn plant response rating (0 to 100 scale, 0 is no effect, 100 is complete control): 500 g ai/ha
Method in brief: as §1

[8] = test system: ducksalad; assay: Test B flooded paddy test; assay type: in vivo, Heteranthera limosa; details: 500 g ai/ha, Flood; scale of 0 to 100 where 0 is no effect and 100 is complete control
Method in brief: as §3

[9] = test system: barnyardgrass; assay: Test A pre-/postemergence herbicide test; assay type: in vivo, Echinochloa crus-galli
Method in brief: as §1

[10] = test system: wheat; assay: Test A pre-/postemergence herbicide test; assay type: in vivo, Triticum aestivum; details: Postemergence; for Plant response rating, Wheat: 125 g ai/ha, 0 to 100 scale, 0 is no effect, 100 is complete control; for Wheat plant response rating (0 to 100 scale, 0 is no effect, 100 is complete control): 500 g ai/ha
Method in brief: as §1

[11] = test system: pigweed; assay: Test A pre-/postemergence herbicide test; assay type: in vivo, Amaranthus retroflexus; details: for Plant response rating, Pigweed: 0 to 100 scale
Method in brief: as §1

[12] = test system: ragweed; assay: Test A pre-/postemergence herbicide test; assay type: in vivo, Ambrosia elatior; details: for Plant response rating, Ragweed: 0 to 100 scale
Method in brief: as §1

[13] = test system: kochia; assay: Test A pre-/postemergence herbicide test; assay type: in vivo, Kochia scoparia; details: for Plant response rating, Kochia: 0 to 100 scale
Method in brief: as §1

[14] = test system: rice; assay: Test B flooded paddy test; assay type: in vivo, Oryza sativa; details: 500 g ai/ha, Flood; scale of 0 to 100 where 0 is no effect and 100 is complete control
Method in brief: as §3

[15] = 125 g ai/ha, visual rating, 0 no effect, 100 complete control, approximately 10 days, preemergence
[16] = Postemergence, 125 g ai/ha, 0 is no effect, 100 is complete control
[17] = preemergence, 500 g ai/ha, 0 is no effect and 100 is complete control
[18] = 125 g ai/ha, visual rating, 0 to 100 scale, 0 no effect, 100 complete control, approximately 10 days, preemergence
[19] = Postemergence, 125 g ai/ha, 0 to 100 scale, 0 is no effect, 100 is complete control

Row | SMILES | Plant response rating, Ryegrass, Italian [1, 15] | Plant response rating, Ryegrass, Italian [1, 16] | Ryegrass, Italian plant response rating (0 to 100 scale, 0 is no effect, 100 is complete control) ([1]; Postemergence, 500 g ai/ha) | Plant response rating, Ryegrass, Italian [1, 17] | Plant response rating, Blackgrass [2] | Blackgrass plant response rating (0 to 100 scale, 0 is no effect, 100 is complete control) [2] | Plant response rating, Galium [3] | Galium plant response rating (0 to 100 scale, 0 is no effect, 100 is complete control) [3] | Plant response rating, Sedge, Umbrella [4] | Plant response rating, Barnyardgrass [5] | Plant response rating, Foxtail, Giant [6, 15] | Plant response rating, Foxtail, Giant [6, 16] | Foxtail, Giant plant response rating (0 to 100 scale, 0 is no effect, 100 is complete control) ([6]; Postemergence, 500 g ai/ha) | Plant response rating, Corn [7] | Corn plant response rating (0 to 100 scale, 0 is no effect, 100 is complete control) [7] | Plant response rating, Ducksalad [8] | Plant response rating, Barnyardgrass [9, 18] | Plant response rating, Barnyardgrass [9, 19] | Barnyardgrass plant response rating (0 to 100 scale, 0 is no effect, 100 is complete control) ([9]; Postemergence, 500 g ai/ha) | Plant response rating, Wheat [10] | further results
1 | O=C1NCC(c2ccc(OC(F)F)cc2)C1C(=O)Nc1ccccc1Cl (stereo not drawn) [Compound 226] | 0 | 0 | 20 | 20 | 20 | 30 | 20 | 20 | 0 | 0 | 70 | 70 | 80 | 0 | 0 | 100 | 50 | 30 | 80 | 0 | Plant response rating, Foxtail, Giant [6, 17]: 90; Plant response rating, Barnyardgrass ([9]; preemergence, 500 g ai/ha, 0 to 100 scale, 0 is no effect and 100 is complete control): 90; Wheat plant response rating (0 to 100 scale, 0 is no effect, 100 is complete control) [10]: 0; Plant response rating, Pigweed [11, 15]: 0; Plant response rating, Pigweed [11, 16]: 0; Pigweed plant response rating (0 to 100 scale, 0 is no effect, 100 is complete control) ([11]; Postemergence, 500 g ai/ha): 0; Plant response rating, Pigweed [11, 17]: 30; Plant response rating, Ragweed [12, 15]: 0; Plant response rating, Ragweed [12, 16]: 0; Ragweed plant response rating (0 to 100 scale, 0 is no effect, 100 is complete control) ([12]; Postemergence, 500 g ai/ha): 0; Plant response rating, Ragweed [12, 17]: 0; Plant response rating, Kochia [13, 15]: 0; Plant response rating, Kochia [13, 16]: 30; Kochia plant response rating (0 to 100 scale, 0 is no effect, 100 is complete control) ([13]; Postemergence, 500 g ai/ha): 50; Plant response rating, Kochia [13, 17]: 30; Plant response rating, Rice [14]: 0
2 | CCc1cccc(C2CNC(=O)C2C(=O)Nc2ccc(F)c(F)c2F)c1 (racemic) [Compound 171] | 0 | 20 | 30 | 30 | 50 | 60 | 50 | 70 | 0 | 70 | 90 | 60 | 80 | 20 | 70 | 100 | 90 | 90 | 90 | 0 | Plant response rating, Foxtail, Giant ([6]; preemergence, 500 g ai/ha): 90; Plant response rating, Barnyardgrass ([9]; preemergence, 500 g ai/ha, 0 to 100 scale (0 no effect, 100 complete control)): 90; Wheat plant response rating (0 to 100 scale, 0 is no effect, 100 is complete control) [10]: 50; Plant response rating, Pigweed [11, 15]: 20; Plant response rating, Pigweed [11, 16]: 0; Pigweed plant response rating (0 to 100 scale, 0 is no effect, 100 is complete control) ([11]; Postemergence, 500 g ai/ha): 40; Plant response rating, Pigweed [11, 17]: 40; Plant response rating, Ragweed [12, 15]: 0; Plant response rating, Ragweed [12, 16]: 0; Ragweed plant response rating (0 to 100 scale, 0 is no effect, 100 is complete control) ([12]; Postemergence, 500 g ai/ha): 30; Plant response rating, Ragweed [12, 17]: 30; Plant response rating, Kochia [13, 15]: 60; Plant response rating, Kochia [13, 16]: 0; Kochia plant response rating (0 to 100 scale, 0 is no effect, 100 is complete control) ([13]; Postemergence, 500 g ai/ha): 30; Plant response rating, Kochia [13, 17]: 70; Plant response rating, Rice [14]: 0
